The record followed here is patent publication US20260034252A1, “FIBROBLAST ACTIVATION PROTEIN-TARGETED COMPOSITIONS AND METHODS OF USE THEREOF” (Ratio Therapeutics, Inc., priority 2022, published 2026).

Where only a bound is given, the exact number is not on record here.

For one series, the target named is FAP (Homo sapiens (Human), UniProt Q12884). The experiment in a line: FAP protease inhibition assay (FAM-labeled substrate peptide, microfluidic electrophoresis). The series is classed as biochemical. Particulars: enzyme 0.5 nM, substrate peptide 1 uM, 15 minutes pre-incubation, three hours for human FAP. The protocol: Protease reactions were assembled in 384 well plates (Greiner) in a total volume of 20 uL as described below.
Recombinant proteins were pre-diluted in assay buffer comprising of 100 mM HEPES, pH 7.5, 0.1% BSA, 0.01% Triton X-100, 1 mM DTT, and dispensed into 384 well plate (10 uL per well). Test compounds were serially pre-diluted in DMSO and added to the assay wells by acoustic dispensing (Labcyte Echo 550). Control samples (0%-inhibition in the absence of inhibitor, DMSO only) and 100%-inhibition (in the absence of enzyme) were assembled in replicates of four and used to calculate the %-inhibition in the presence of compounds. Concentration of DMSO was equalized to 1% in all samples.
Compounds were pre-incubated with enzymes for 15 minutes. Human FAP was obtained from Enzo, catalogue number BML-SE409-0010. […] Final concentration of enzymes were 0.5 nM. Final concentration of substrate peptides was 1 uM.
The reactions were allowed to proceed at room temperature. Incubation time was three hours for human FAP, 0.5 hours for mouse FAP.
Terminated plates were analyzed using a microfluidic electrophoresis instrument (Caliper LabChip® 3000, Caliper Life Sciences/Perkin Elmer). A change in relative intensity of the peptide substrate and cleaved product was the parameter measured. Activity in each test sample was determined as the product to sum ratio (PSR):P/(S+P), where P is the peak height of the product, and S is the peak height of the substrate. Percent inhibition (Pinh) was determined using the following equation: Pinh=(PSR0% inh−PSRcompound)/(PSR0% inh−PSR100% inh)*100, in which: PSRcompound is the product/sum ratio in the presence of compound, PSR0% inh is the product/sum ratio in the absence of compound and the PSR100% inh is the product/sum ratio in the absence of the enzyme.

Series [1] concerns U-87 (human glioblastoma) cells. The series is described as follows: Detection of tumors in BALB/c nude mice transplanted with U-87 cells. It counts as in vivo. Particulars: 1 μg intravenous injection, one hour. The protocol: BALB/c nude mice were transplanted with approximately 10^7 U-87 (human glioblastoma) cells and the tumors allowed to develop. 1 μg of an ^18F-labeled FAP-targeted agent of the invention, RTX-1312S (prepared according to Example 13), was administered to the mice by intravenous injection (e.g., tail vein), which were then sacrificed after one hour. FIG. 1a illustrates tumor binding of the ^18F-labeled FAP-targeted compound in mice.

FAP, sequence (Q12884 whole entry): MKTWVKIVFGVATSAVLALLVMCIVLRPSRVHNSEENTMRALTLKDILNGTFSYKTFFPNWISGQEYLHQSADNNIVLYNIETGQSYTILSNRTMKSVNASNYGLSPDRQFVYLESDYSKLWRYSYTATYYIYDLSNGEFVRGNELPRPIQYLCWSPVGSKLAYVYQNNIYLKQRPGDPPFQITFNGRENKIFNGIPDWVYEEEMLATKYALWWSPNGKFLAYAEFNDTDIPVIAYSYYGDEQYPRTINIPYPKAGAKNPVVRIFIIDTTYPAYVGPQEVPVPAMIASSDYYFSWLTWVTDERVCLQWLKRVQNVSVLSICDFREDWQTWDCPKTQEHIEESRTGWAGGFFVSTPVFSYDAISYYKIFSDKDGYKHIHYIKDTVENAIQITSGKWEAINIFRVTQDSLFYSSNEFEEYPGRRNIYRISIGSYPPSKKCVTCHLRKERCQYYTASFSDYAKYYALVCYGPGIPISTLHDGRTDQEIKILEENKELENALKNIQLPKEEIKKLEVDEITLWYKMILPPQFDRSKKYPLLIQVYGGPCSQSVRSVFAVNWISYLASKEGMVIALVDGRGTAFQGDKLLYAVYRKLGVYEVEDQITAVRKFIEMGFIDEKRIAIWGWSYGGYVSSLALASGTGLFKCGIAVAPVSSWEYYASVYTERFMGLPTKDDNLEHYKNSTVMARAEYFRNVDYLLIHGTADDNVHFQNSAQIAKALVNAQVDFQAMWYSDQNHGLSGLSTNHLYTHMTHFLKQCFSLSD

One may read the IC50 as the concentration that gives 50% inhibition. Regarding `CC(=O)NCCCC[C@H](NC(=O)[C@H](CCCCNC(=S)Nc1ccc(CC2CN(CC(=O)O)CCN(CC(=O)O)CCN2CC(=O)O)cc1)NC(=O)CCOCCOCCOCCNC(=O)COc1ccc2c(C(=O)NCC(=O)N3CCC[C@H]3C#N)ccnc2c1)C(=O)O` (stereo partly drawn) [RTX-1312S, (S)-2-[(S)-2-(3-{2-[2-(2-{2-[4-({2-[(S)-2-Cyano-1-pyrrolidinyl]-2-oxoethylamino}carbonyl)-7-quinolyloxy]acetylamino}ethoxy)ethoxy]ethoxy}propionylamino)-6-[3-(p-{[1,4,7-tris(carboxymethyl)-1,4,7-triazonan-2-yl]methyl}phenyl)thioureido]hexanoylamino]-6-acetylaminohexanoic Acid], the IC50 at FAP was under 0.1 nM. In addition, the “tumor binding of 18F-labeled compound” value in series [1] is on record as “tumor binding”.
